Consider 22 compounds from PubChem BioAssay AID206 (DTP/NCI, 2004).

Each structure is given as a SMILES string. Several values for one entry are separate records, joined by “and”; a condition that tells them apart may be missing. Equal entries are not always repeated. Inconclusive results are not listed.

In the assay the test system is nude mice, HT29 intrarenal xenograft, tumor weight T/C. The experiment in a line: NCI In Vivo Anticancer Drug Screen. Data for tumor model HT29;CX-1 Human Adenocarcinoma (MER+) (intrarenal inoculation) in NU/NU Swiss (nude) mice. Particulars: endpoint: mean tumor weight change, higher = larger tumour. Put shortly: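 Readout: treated/vehicle-control ratio of the measured endpoint (tumor size or survival) in transplanted-tumor mice.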

Setting [1] is: dose: 200.0 mg/kg/injection, schedule: Q04DX004 (sc), vehicle: suspension in saline.
Setting [2] is: dose: 5.0 mg/kg/injection, schedule: Q04DX004 (sc), vehicle: saline.
Setting [3] is: dose: 20.0 mg/kg/injection, schedule: Q04DX004 (sc), vehicle: saline.
Setting [4] is: dose: 25.0 mg/kg/injection, schedule: Q04DX004 (sc), vehicle: suspension in saline.
The mark [5] stands for this setting: dose: 50.0 mg/kg/injection, schedule: Q04DX004 (sc), vehicle: suspension in saline.
Setting [6] is: dose: 100.0 mg/kg/injection, schedule: Q04DX004 (sc), vehicle: suspension in saline.

As to `Cn1cnc([N+](=O)[O-])c1SCC(=O)O`, the T/C is 89 % of control (dose: 300.0 mg/kg/injection, schedule: Q04DX004 (sc), vehicle: saline); 83 % of control (dose: 600.0 mg/kg/injection, schedule: Q04DX004 (sc), vehicle: saline); 66 % of control (dose: 1200.0 mg/kg/injection, schedule: Q04DX004 (sc), vehicle: saline); 77 % of control (dose: 2400.0 mg/kg/injection, schedule: Q04DX004 (sc), vehicle: saline).
For the compound `Cn1cnc([N+](=O)[O-])c1Sc1ncn[nH]1`, the T/C under setting [1] is 49 % of control.
`O=NN(CCF)C(=O)NC1CCCCC1`: the T/C reads like this: (dose: 6.25 mg/kg/injection, schedule: Q04DX004 (sc), vehicle: Klucel (hydroxypropylcellulose) (HPC)) 55 % of control; (dose: 12.5 mg/kg/injection, schedule: Q04DX004 (sc), vehicle: Klucel (hydroxypropylcellulose) (HPC)) 30 % of control; (dose: 25.0 mg/kg/injection, schedule: Q04DX004 (sc), vehicle: Klucel (hydroxypropylcellulose) (HPC)) 62 % of control.
Regarding `CC(C)(C)c1ccc(CN2CCN(C(c3ccccc3)c3ccc(Cl)cc3)CC2)cc1` (configuration not stated), the T/C (dose: 75.0 mg/kg/injection, schedule: Q04DX004 (sc), vehicle: Klucel (hydroxypropylcellulose) (HPC)) was 78 % of control; the T/C (dose: 150.0 mg/kg/injection, schedule: Q04DX004 (sc), vehicle: Klucel (hydroxypropylcellulose) (HPC)) is 74 % of control; the T/C (dose: 300.0 mg/kg/injection, schedule: Q04DX004 (sc), vehicle: Klucel (hydroxypropylcellulose) (HPC)) was 88 % of control; the T/C (dose: 600.0 mg/kg/injection, schedule: Q04DX004 (sc), vehicle: Klucel (hydroxypropylcellulose) (HPC)) is 93 % of control.
Take `c1ccc([P+](c2ccccc2)(c2ccccc2)c2ccccc2)cc1`: the T/C was 105 % of control under setting [2]; 107 % of control (dose: 10.0 mg/kg/injection, schedule: Q04DX004 (sc), vehicle: saline); 68 % of control under setting [3].
With `C/C=C(\C)c1cc(=O)c2c(C)cc3c(c2o1)C(=O)c1c(O)c(C2CC(C)(N(C)C)C(OC(C)=O)C(C)O2)cc(C2CC(N(C)C)C(O)C(C)O2)c1C3=O` (configuration not stated), the T/C was 102 % of control (dose: 2.5 mg/kg/injection, schedule: Q04DX004 (sc), vehicle: saline); 93 % of control under setting [2]; 37 % of control and 39 % of control under setting [3].
Consider `C[C@@]12C(=O)OC(=O)[C@]1(C)[C@H]1CC[C@@H]2O1`, for which the T/C (dose: 1.25 mg/kg/injection, schedule: Q04DX004 (sc), vehicle: Klucel (hydroxypropylcellulose) (HPC)) was 87 % of control; the T/C (dose: 2.5 mg/kg/injection, schedule: Q04DX004 (sc), vehicle: Klucel (hydroxypropylcellulose) (HPC)) was 75 % of control; the T/C (dose: 5.0 mg/kg/injection, schedule: Q04DX004 (sc), vehicle: Klucel (hydroxypropylcellulose) (HPC)) was 89 % of control.
Consider `O=c1n[n+]([O-])ccn1C1OC(CO)C(O)C1O` (configuration not stated), for which the T/C runs as follows: (dose: 250.0 mg/kg/injection, schedule: Q04DX004 (sc), vehicle: suspension in saline) 31 % of control; (dose: 500.0 mg/kg/injection, schedule: Q04DX004 (sc), vehicle: suspension in saline) 25 % of control; (dose: 1000.0 mg/kg/injection, schedule: Q04DX004 (sc), vehicle: suspension in saline) 27 % of control.
For `O=c1n(CC2CO2)c(=O)n(CC2CO2)n1CC1CO1` (configuration not stated), the T/C (dose: 37.5 mg/kg/injection, schedule: Q04DX004 (sc), vehicle: suspension in saline) is 76 % of control.
In the case of `O=C(CCBr)N1CCN(C(=O)CCBr)CC1`, the T/C by setting is: (dose: 12.5 mg/kg/injection, schedule: Q01DX010 (sc), vehicle: Klucel (hydroxypropylcellulose) (HPC)) 71 % of control; (dose: 25.0 mg/kg/injection, schedule: Q01DX010 (sc), vehicle: Klucel (hydroxypropylcellulose) (HPC)) 64 % of control.
As to `Cc1ccc2c(ccc(CC(=S)[S-])[n+]2C)c1`, the T/C runs as follows: (dose: 50.0 mg/kg/injection, schedule: Q01DX010 (sc), vehicle: Klucel (hydroxypropylcellulose) (HPC)) 96 % of control; (dose: 100.0 mg/kg/injection, schedule: Q01DX010 (sc), vehicle: Klucel (hydroxypropylcellulose) (HPC)) 85 % of control; (dose: 200.0 mg/kg/injection, schedule: Q01DX010 (sc), vehicle: Klucel (hydroxypropylcellulose) (HPC)) 44 % of control; (dose: 400.0 mg/kg/injection, schedule: Q01DX010 (sc), vehicle: Klucel (hydroxypropylcellulose) (HPC)) 67 % of control.
Turning to `OCC1OC(n2cnc3cncnc32)C(O)C1O` (configuration not stated), the T/C is 65 % of control (dose: 12.5 mg/kg/injection, schedule: Q04DX004 (sc), vehicle: saline); 77 % of control (dose: 25.0 mg/kg/injection, schedule: Q04DX004 (sc), vehicle: saline); 66 % of control (dose: 50.0 mg/kg/injection, schedule: Q04DX004 (sc), vehicle: saline).
As for `O=NN(CCCl)C(=O)NCCCl`, the T/C (dose: 2.0 mg/kg/injection, schedule: Q01DX010 (sc), vehicle: saline) was 80 % of control; the T/C (dose: 4.0 mg/kg/injection, schedule: Q01DX010 (sc), vehicle: saline) was 66 % of control; the T/C (dose: 8.0 mg/kg/injection, schedule: Q01DX010 (sc), vehicle: saline) is 61 % of control and 70 % of control; the T/C (dose: 15.0 mg/kg/injection, schedule: Q04DX004 (sc), vehicle: suspension in saline) was 100 % of control; the T/C (dose: 30.0 mg/kg/injection, schedule: Q04DX004 (sc), vehicle: suspension in saline) is 69 % of control; the T/C (dose: 60.0 mg/kg/injection, schedule: Q04DX004 (sc), vehicle: suspension in saline) is 41 % of control.
For `CCCCCCCCCCCCCCCC(=O)OCC1OC(n2ccc(N)nc2=O)C(O)C1O` (configuration not stated), the T/C (dose: 18.75 mg/kg/injection, schedule: Q04DX004 (sc), vehicle: saline with Tween-80) was 41 % of control.
Turning to `CNNCc1ccc(C(=O)NC(C)C)cc1`, the T/C was 194 % of control (dose: 50.0 mg/kg/injection, schedule: Q01DX010 (sc), vehicle: saline); 63 % of control and 77 % of control (dose: 200.0 mg/kg/injection, schedule: Q01DX010 (sc), vehicle: saline).
In the case of `C[C@H]1C[C@@H]2[C@H]([C@@H](O)C[C@@]3(C)[C@H]2CC[C@]3(O)C(=O)CO)[C@@]2(C)C=CC(=O)C=C12`, the T/C (dose: 200.0 mg/kg/injection, schedule: Q04DX004 (sc), vehicle: Klucel (hydroxypropylcellulose) (HPC)) is 69 % of control.
As for `O=C1c2ccccc2C(=O)c2c(NCCNCCO)ccc(O)c21`, the T/C by setting is: under setting [4], 74 % of control; under setting [5], 73 % of control; under setting [6], 111 % of control.
Regarding `CNc1n[n+](-c2ccccc2)no1`, the T/C is 117 % of control (dose: 37.5 mg/kg/injection, schedule: Q04DX004 (sc), vehicle: water) and 115 % of control (dose: 75.0 mg/kg/injection, schedule: Q04DX004 (sc), vehicle: water).
Consider `Cc1cc2cc3cc(C)c(N)cc3nc2cc1N`, for which the T/C reads like this: (dose: 50.0 mg/kg/injection, schedule: Q04DX004 (sc), vehicle: saline with Tween-80) 86 % of control; (dose: 100.0 mg/kg/injection, schedule: Q04DX004 (sc), vehicle: saline with Tween-80) 90 % of control; (dose: 200.0 mg/kg/injection, schedule: Q04DX004 (sc), vehicle: saline with Tween-80) 82 % of control; (dose: 300.0 mg/kg/injection, schedule: Q04DX004 (sc), vehicle: saline with Tween-80) 89 % of control; (dose: 400.0 mg/kg/injection, schedule: Q04DX004 (sc), vehicle: saline with Tween-80) 66 % of control; (dose: 600.0 mg/kg/injection, schedule: Q04DX004 (sc), vehicle: saline with Tween-80) 21 % of control. Further, the T/C was 37 % of control (dose: 1200.0 mg/kg/injection, schedule: Q04DX004 (sc), vehicle: saline with Tween-80) and 45 % of control (dose: 2400.0 mg/kg/injection, schedule: Q04DX004 (sc), vehicle: saline with Tween-80).
Take `N=C(N)SCc1c2ccccc2c(CSC(=N)N)c2ccccc12`: the T/C runs as follows: under setting [4], 69 % of control; under setting [5], 72 % of control; under setting [6], 52 % of control; under setting [1], 75 % of control.
As for `CCC1CCCCN1C(=S)N/N=C(\C)c1ccccn1` (configuration not stated), the T/C was 59 % of control (dose: 37.5 mg/kg/injection, schedule: Q04DX004 (sc), vehicle: saline with Tween-80) and 26 % of control (dose: 75.0 mg/kg/injection, schedule: Q04DX004 (sc), vehicle: saline with Tween-80).
Consider `CC(=O)OCC1OC(OC(C)=O)C(NC(=O)N(CCCl)N=O)C(OC(C)=O)C1OC(C)=O` (configuration not stated), for which the T/C is, setting by setting: (dose: 3.0 mg/kg/injection, schedule: Q04DX004 (sc), vehicle: Klucel (hydroxypropylcellulose) (HPC)) 30 % of control; (dose: 6.0 mg/kg/injection, schedule: Q04DX004 (sc), vehicle: Klucel (hydroxypropylcellulose) (HPC)) 40 % of control; (dose: 12.0 mg/kg/injection, schedule: Q04DX004 (sc), vehicle: Klucel (hydroxypropylcellulose) (HPC)) 60 % of control; (dose: 24.0 mg/kg/injection, schedule: Q04DX004 (sc), vehicle: Klucel (hydroxypropylcellulose) (HPC)) 96 % of control.
